Measurements: ChEMBL document CHEMBL1765025, “4-Aminothiazolyl analogues of GE2270 A: antibacterial lead finding” (2011)
Converted amounts (≈) assume the structure as drawn.

What was measured:
Format in all cases: functional
Staphylococcus = assay: Antibacterial activity against methicillin-resistant Staphylococcus
Enterococcus = assay: Antibacterial activity against vancomycin-resistant Enterococcus
Enterococcus faecalis = assay: Antibacterial activity against Enterococcus faecalis ATCC 29212 by CLSI M100-S19 method
Enterococcus faecium = assay: Antibacterial activity against Enterococcus faecium by CLSI M100-S19 method
Staphylococcus aureus = assay: Antibacterial activity against methicillin-resistant Staphylococcus aureus by CLSI M100-S19 method
Streptococcus pyogenes = assay: Antibacterial activity against Streptococcus pyogenes ATCC BAA-595 by CLSI M100-S19 method

SMILES	MIC (Staphylococcus) [µg/mL]	MIC (Enterococcus) [µg/mL]	MIC (Enterococcus faecalis) [µg/mL]	MIC (Enterococcus faecium) [µg/mL]	MIC (Staphylococcus aureus) [µg/mL]	MIC (Streptococcus pyogenes) [µg/mL]
CNC(=O)C[C@@H]1NC(=O)c2csc(n2)-c2ccc(-c3nc(C4=N[C@H](C(=O)N5CCC[C@H]5C(N)=O)CO4)cs3)nc2-c2csc(n2)-c2csc(n2)[C@H]([C@@H](O)c2ccccc2)NC(=O)CNC(=O)c2nc(sc2COC)[C@H](C(C)C)NC(=O)c2nc1sc2C	1 (≈ 0.775 µM)	1 (≈ 0.775 µM)	0.5 (≈ 0.387 µM)	0.25 (≈ 0.194 µM)	0.25 (≈ 0.194 µM)	1 (≈ 0.775 µM)
CNC(=O)C[C@@H]1NC(=O)c2csc(n2)-c2ccc(-c3nc(NC(=O)OC(C)(C)C)cs3)nc2-c2csc(n2)-c2csc(n2)[C@H]([C@@H](O)c2ccccc2)NC(=O)CNC(=O)c2nc(sc2COC)[C@H](C(C)C)NC(=O)c2nc1sc2C	–	–	> 32	> 32	> 32	> 32
CNC(=O)C[C@@H]1NC(=O)c2csc(n2)-c2ccc(C(N)=O)nc2-c2csc(n2)-c2csc(n2)[C@H]([C@@H](O)c2ccccc2)NC(=O)CNC(=O)c2nc(sc2COC)[C@H](C(C)C)NC(=O)c2nc1sc2C	–	–	32 (≈ 30.7 µM)	> 32	> 32	> 32
CNC(=O)C[C@@H]1NC(=O)c2csc(n2)-c2ccc(-c3nc(NC(C)=O)cs3)nc2-c2csc(n2)-c2csc(n2)[C@H]([C@@H](O)c2ccccc2)NC(=O)CNC(=O)c2nc(sc2COC)[C@H](C(C)C)NC(=O)c2nc1sc2C	–	–	1 (≈ 0.878 µM)	1 (≈ 0.878 µM)	2 (≈ 1.76 µM)	> 32
CNC(=O)C[C@@H]1NC(=O)c2csc(n2)-c2ccc(-c3nc(NS(C)(=O)=O)cs3)nc2-c2csc(n2)-c2csc(n2)[C@H]([C@@H](O)c2ccccc2)NC(=O)CNC(=O)c2nc(sc2COC)[C@H](C(C)C)NC(=O)c2nc1sc2C	–	–	2 (≈ 1.7 µM)	4 (≈ 3.41 µM)	2 (≈ 1.7 µM)	> 32
